Measurements as given in patent US20210253575A1, “PYRROLIDINE AMINE COMPOUNDS FOR THE TREATMENT OF AUTOIMMUNE DISEASE” (Hoffmann-La Roche Inc., priority 2018, published 2021).

Biological target: T1, human TLR7 (Homo sapiens, UniProt Q9NYK1)
T1 sequence (Q9NYK1 27-1049): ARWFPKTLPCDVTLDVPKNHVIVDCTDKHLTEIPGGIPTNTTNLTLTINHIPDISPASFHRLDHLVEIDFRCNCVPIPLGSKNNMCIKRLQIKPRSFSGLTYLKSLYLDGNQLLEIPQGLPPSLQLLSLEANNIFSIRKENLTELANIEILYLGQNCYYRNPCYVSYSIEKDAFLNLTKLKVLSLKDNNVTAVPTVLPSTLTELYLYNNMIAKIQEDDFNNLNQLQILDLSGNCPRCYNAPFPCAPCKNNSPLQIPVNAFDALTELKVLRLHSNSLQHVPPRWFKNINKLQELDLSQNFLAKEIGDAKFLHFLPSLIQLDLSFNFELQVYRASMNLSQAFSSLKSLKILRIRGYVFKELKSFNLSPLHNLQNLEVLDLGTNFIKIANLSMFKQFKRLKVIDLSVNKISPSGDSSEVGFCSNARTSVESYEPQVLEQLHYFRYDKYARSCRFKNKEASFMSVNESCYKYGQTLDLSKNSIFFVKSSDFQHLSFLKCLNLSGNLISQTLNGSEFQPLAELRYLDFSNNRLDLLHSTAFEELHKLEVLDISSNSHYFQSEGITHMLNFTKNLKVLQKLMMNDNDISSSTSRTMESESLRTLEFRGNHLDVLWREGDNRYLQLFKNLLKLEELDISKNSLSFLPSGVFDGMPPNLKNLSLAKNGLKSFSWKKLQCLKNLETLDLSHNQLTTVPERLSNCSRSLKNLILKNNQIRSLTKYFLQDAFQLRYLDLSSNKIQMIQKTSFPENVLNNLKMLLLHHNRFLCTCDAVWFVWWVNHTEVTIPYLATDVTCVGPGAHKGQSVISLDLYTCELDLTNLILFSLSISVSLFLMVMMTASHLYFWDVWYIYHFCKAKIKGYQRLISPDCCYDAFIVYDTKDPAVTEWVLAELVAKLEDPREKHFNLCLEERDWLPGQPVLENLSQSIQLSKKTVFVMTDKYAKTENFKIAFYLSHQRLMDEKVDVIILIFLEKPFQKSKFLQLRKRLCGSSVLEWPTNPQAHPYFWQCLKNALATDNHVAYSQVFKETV
Assay: HEK293-Blue-hTLR-7 cells assay (SEAP reporter, R848 stimulation)
Type: cell-based
Conditions: HEK293-Blue-hTLR7 cells, R848 ligand, 20 hrs incubation
Outline: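 Antagonism measured in stable HEK293-Blue-hTLR7 cells carrying an NF-κB/AP-1-driven SEAP reporter, stimulated with R848 (10 µL of 20 µM stock) with serially diluted compound, 1% DMSO, 20 h at 37 °C. Supernatant SEAP read with QUANTI-Blue after 2 h at 37 °C, absorbance 620–655 nm.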

Row | Structure (SMILES) | IC50
1 | CN1CCC2(CCN(C[C@H]3CN(c4ccc(C#N)c5nccnc45)C[C@@H]3C(F)(F)F)C2)C1 (stereo partly drawn) [Example 84, 8-[(3S,4R)-3-[(7-methyl-2,7-diazaspiro[4.4]nonan-2-yl)methyl]-4-(trifluoromethyl)pyrrolidin-1-yl]quinoxaline-5-carbonitrile] | 48 nM
2 | CC1(CN)CCN(C[C@H]2CN(c3ccc(C#N)c4nccnc34)C[C@@H]2C(F)(F)F)C1 (stereo partly drawn) [Example 85, 8-[(3S,4R)-3-[[3-(aminomethyl)-3-methyl-pyrrolidin-1-yl]methyl]-4-(trifluoromethyl)pyrrolidin-1-yl]quinoxaline-5-carbonitrile] | 83 nM
3 | CN(C)[C@@H]1CCN(C[C@H]2CN(c3ccc(C#N)c4nccnc34)C[C@@H]2C(F)(F)F)C1 [Example 83, 8-[(3S,4R)-3-[[(3R)-3-(dimethylamino)pyrrolidin-1-yl]methyl]-4-(trifluoromethyl)pyrrolidin-1-yl]quinoxaline-5-carbonitrile] | 25 nM
4 | N#Cc1ccc(N2CC(CN3CC4CCC(C3)C4N)C3(CC3)C2)c2nccnc12 (centres unmarked) [Example 4, 8-[7-[(8-Amino-3-azabicyclo[3.2.1]octan-3-yl)methyl]-5-azaspiro[2.4]heptan-5-yl]quinoxaline-5-carbonitrile] | 28 nM
5 | N#Cc1ccc(N2CC(CN3CCNCC3)C3(CC3)C2)c2nccnc12 (centres unmarked) [Example 3, 8-[7-(piperazin-1-ylmethyl)-5-azaspiro[2.4]heptan-5-yl]quinoxaline-5-carbonitrile] | 27 nM
